# From patent publication EP4491625A1, “BENZO BICYCLIC COMPOUND, AND PREPARATION METHOD AND APPLICATION THEREOF” (Guangzhou Unirise Pharmaceutical Co., Ltd., priority 2022, dated 2023)
# Counter-ions that a name gives are not always drawn.
# What was measured:
# [1] = molecular target: T1, GLP-1 receptor (Homo sapiens, UniProt P43220); experiment: cAMP detection assay of agonistic effect in HEK293 cells with high expression of hGLP-1R; type: cell-based; conditions: agonistic effect, cAMP, HEK293 cells with high expression of hGLP-1R; read-out: EC50
# T1 construct: host or cells: HEK293
# T1 sequence (P43220 24-463): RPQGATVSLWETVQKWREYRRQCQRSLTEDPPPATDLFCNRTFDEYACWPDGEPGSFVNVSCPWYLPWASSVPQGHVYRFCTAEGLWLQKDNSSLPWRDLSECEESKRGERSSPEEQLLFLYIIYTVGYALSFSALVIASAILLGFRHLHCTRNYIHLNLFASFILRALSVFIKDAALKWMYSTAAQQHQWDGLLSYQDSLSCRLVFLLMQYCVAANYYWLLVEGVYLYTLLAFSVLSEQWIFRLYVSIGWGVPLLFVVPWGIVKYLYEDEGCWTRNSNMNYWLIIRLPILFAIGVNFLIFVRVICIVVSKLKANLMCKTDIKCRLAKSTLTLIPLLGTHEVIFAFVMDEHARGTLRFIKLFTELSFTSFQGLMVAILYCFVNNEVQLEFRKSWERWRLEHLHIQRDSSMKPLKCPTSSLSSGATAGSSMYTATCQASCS
# Procedure: The cells were constructed by Wuxi New Drug Development Co., Ltd. Shanghai.
# The compound was prepared with DMSO to a working concentration of 100µM or 10µM. 10 points of 4-fold dilution (maximum concentration of 1000nM or 100nM after dilution) was done with Bravo V11.
# The compound to be tested was diluted 4 times with Bravo to obtain 10 concentrations and the initial concentration was 100µM by Bravo V11. The initial concentration was 100µM.
# [2] = Human liver microsome stability test; type: in vitro ADME; conditions: pH 7.4; human liver microsomes 0.5 mg/mL, 1 µM compound, NADPH, 37 °C
# Procedure: Preparation of compound working solutions: A high-concentration stock solution of the subject and control drug verapamil powder was prepared in DMSO and diluted to a working solution of 100 µM with DMSO before use, with a final concentration of 1 µM of the subject and verapamil.
# Preparation of phosphate buffer salt (100 mM, pH 7.4): 7.098 g of disodium hydrogen phosphate was weighed and dissolved ultrasonically in 500 mL of purified water as solution A. 3.400 g of potassium dihydrogen phosphate was weighed and dissolved ultrasonically in 250 mL of purified water as solution B. Solution B was added to the inside of solution A to give a pH of 7.4.
# Preparation of 10 mM NADPH: An appropriate amount of NADPH is now weighed before the experiment and a working solution of 10 mM concentration is prepared from phosphate solution.
# Preparation of the incubation system: The incubation system was prepared according to the following table, and the incubation system was preheated in a water bath at 37 °C for 10 minutes before use.
# Transfer 25 µL of NADPH or phosphate buffer salt to the above incubation system and add 2.5 µL of 100 µM subject or verapamil. For NADPH-added samples, double-parallel preparations were performed; for NADPH-negative samples, single-parallel preparations were performed.
# 30 µL of the suspension was taken at 0.5, 5, 15, 30, and 60 min, respectively. The reaction was terminated by adding 150 µL of acetonitrile containing the internal standard and vortexed for 10 min.
# This was followed by centrifugation at 3220 g for 40 min for protein precipitation. 100 µL of supernatant was transferred to the injection plate and mixed with 100 µL of pure water for UPLC-MS/MS analysis.
# All data calculations were performed by Microsoft Excel software. Peak areas were detected by extracted ion mapping. The in vitro half-life (t1/2) of the parent drug was assayed by fitting the natural logarithm of the percentage elimination of the parent drug linearly with time.
# The in vitro half-life (t1/2) was calculated by slope: t1/2 = 0.693 / k
# The in vitro clearance (in µL/min/mg) was calculated using the following formula: CLint =0.693/ t1/2 * (Incubation system volume (μL) / protein content (mg)) [formula]
# Table 3 the experimental results of human liver microsome of the compounds provided in some examples of the present invention
# [3] = Pharmacokinetic study in rats (intravenous or gavage, plasma LC-MS/MS); type: in vivo; conditions: SD rats; for F: po 5 mg/kg versus iv 1 mg/kg; for AUC(0-t) / Cmax / Tmax / half-life: rat, plasma
# Procedure: SD rats: male, 6-8 weeks old, weighing 200-300 g, purchased from SPF ( Beijing ) Biotechnology Co.,Ltd..
# At each PK sampling point, 200 µL of whole blood was collected into EDTA-K2 anticoagulant blood tubes and centrifuged at 4°C for 30 min to obtain plasma. Whole blood samples were placed on wet ice before centrifugation. All collected plasma samples were stored on dry ice or frozen until analyzed.
# Approximately1 mg of the compound of the present application was weighed and dissolved in DMSO, vortexed and sonicated to obtain a 1 mg/mL standard stock solution. The standard stock solution was diluted with 50% aqueous acetonitrile to obtain standard working solutions with concentrations of 5, 10, 20, 50, 100, 500, 1000, 5000 and 10000 ng/mL. QC working solutions with concentrations of 10, 20, 500 and 8000 ng/mL were prepared using the same dilution method. These QC samples were prepared on the day of analysis in the same way as the standard curve samples.5 µL of standard working solution with concentrations of (5, 10, 20, 50, 100, 500, 1000, 5000 and 10000 ng/mL) was added to 50 µL of blank SD rat plasma to obtain a total volume of 55 µL with concentrations of 0.5-1000 ng/mL (0.5, 1, 2, 5, 10, 50, 100, 500, and 1000 ng/mL) of standard curve samples. QC samples with concentrations of (1 ng/ml (low-1) and 2 ng/ml (low-2), 50 ng/ml (medium), 800 ng/ml (high)) were configured separately.
# 55 µL of standard samples, 55 µL of QC samples or 55 µL of unknown samples (50 µL of plasma samples added to 5 µL of 50% aqueous acetonitrile) were added to 200 µL of acetonitrile containing an internal standard (dexamethasone) to precipitate proteins. […] The supernatant was taken and diluted 3-fold with water, and 5 µL of the supernatant dilution was injected into the LC-MS/MS system for quantitative analysis under the following assay conditions:
# Column: HALO 90A Phenly-Hexyl, 2µm 2.1×30mm.
# Pharmacokinetic parameters were calculated by the […] of Phoenix TM Winnonlin® 8.3 software.
smiles,measurement,setting,value
"O=C(O)c1ccc2nc(CC3CC=C(c4cccc(OCc5ccc(Cl)c6ccoc56)n4)CC3)n(C[C@@H]3CCO3)c2n1 (stereo partly drawn) [Compound 34, 2-((4-(6-((4-chlorobenzofuran-7-yl)methoxy)pyridin-2-yl)cyclohex-3-en-1-yl)methyl)-3-(((S)-oxetan-2-yl)methyl)-3H-imidazo[4,5-b]pyridine-5-carboxylic acid]",EC50,[1],0.2 nM
"O=C(O)c1ccc2nc(CC3CC=C(c4ncc(F)c(OCc5ccc(Cl)c6cc(F)oc56)n4)CC3)n(C[C@@H]3CCO3)c2n1 (stereo partly drawn) [Compound 5, 2-((4-(4-((4-chloro-2-fluorobenzofuran-7-yl)methoxy)-5-fluoropyrimidin-2-yl)cyclohex-3-en-1-yl)methyl)-3-(((S)-oxetan-2-yl)methyl)-3H-imidazo[4,5-b]pyridine-5-carboxylic acid]",half-life at 1 µM,[2],> 3.08 h
"O=C(O)c1ccc2nc(C[C@H]3CC=C(c4cccc(OCc5ccc(Cl)c6cc(F)oc56)n4)CC3)n(C[C@@H]3CCO3)c2c1 [Compound 36B, 2-(((R)-4-(6-((4-chloro-2-fluorobenzofuran-7-yl)methoxy)pyridin-2-yl)cyclohex-3-en-1-yl)methyl)-1-(((S)-oxetan-2-yl)methyl)-1H-benzo[d]imidazole-6-carboxylic acid]",EC50,[1],0.22 nM
O=C(O)c1ccc2nc(CC3CC=C(c4ncc(F)c(OCc5ccc(Cl)c6cc(F)oc56)n4)CC3)n(C[C@@H]3CCO3)c2c1 (stereo partly drawn) [Compound 31],EC50,[1],0.19 nM
same,half-life at 1 µM,[2],2.77 h
"O=C(O)c1ccc2nc(CC3CC=C(c4cccc(OCc5ccc(Cl)c6cc(Cl)oc56)n4)CC3)n(C[C@@H]3CCO3)c2c1 (stereo partly drawn) [Compound 25, 2-((4-(6-((2,4-dichlorobenzofuran-7-yl)methoxy)pyridin-2-yl)cyclohex-3-en-1-yl)methyl)-1-(((S)-oxetan-2-yl)methyl)-1H-benzo[d]imidazole-6-carboxylic acid]",F,[3],38.8%
same,AUC(0-t),"[3]; male, iv, 1 mg/kg",1250 ng·h/mL
same,Cmax,"[3]; male, iv, 1 mg/kg",1080 ng/mL
same,Tmax,"[3]; male, iv, 1 mg/kg",0.083 h
same,half-life,"[3]; male, iv, 1 mg/kg",2.57 h
same,AUC(0-t),"[3]; male, po, 5 mg/kg",2440 ng·h/mL
same,Cmax,"[3]; male, po, 5 mg/kg",460 ng/mL
same,Tmax,"[3]; male, po, 5 mg/kg",4 h
same,half-life,"[3]; male, po, 5 mg/kg",5.29 h
"N#CCC1(Cn2c(CC3CC=C(c4cccc(OCc5ccc(Cl)c6cc(F)oc56)n4)CC3)nc3ccc(C(=O)O)cc32)CC1 (stereo not drawn) [Compound 28, 2-((4-(6-((4-chloro-2-fluorobenzofuran-7-yl)methoxy)pyridin-2-yl)cyclohex-3-en-1-yl)methyl)-1-((1-(cyanomethyl)cyclopropyl)methyl)-1H-benzo[d]imidazole-6-carboxylic acid]",EC50,[1],0.07 nM
same,half-life at 1 µM,[2],> 3.08 h
"O=C(O)c1cc(F)c2nc(C[C@H]3CC[C@H](c4cccc(OCc5ccc(Cl)c6cc(F)oc56)n4)CC3)n(C[C@@H]3CCO3)c2c1 [Compound 39, 2-(((1r,4S)-4-(6-((4-chloro-2-fluorobenzofuran-7-yl)methoxy)pyridin-2-yl)cyclohexyl)methyl)-4-fluoro-1-(((S)-oxetan-2-yl)methyl)-1H-benzo[d]imidazole-6-carboxylic acid]",EC50,[1],0.15 nM
"O=C(O)c1ccc2nc(CC3CC=C(c4cccc(OCc5ccc(Cl)c6cc(F)oc56)n4)CC3)n(C[C@@H]3CCO3)c2n1 (stereo partly drawn) [Compound 6, 2-((4-(6-((4-chloro-2-fluorobenzofuran-7-yl)methoxy)pyridin-2-yl)cyclohex-3-en-1-yl)methyl)-3-(((S)-oxetan-2-yl)methyl)-3H-imidazo[4,5-b]pyridine-5-carboxylic acid]",half-life at 1 µM,[2],1.86 h
"O=C(O)c1ccc2nc(C[C@H]3CC[C@H](c4cccc(OCc5ccc(Cl)c6cc(Cl)oc56)n4)CC3)n(C[C@@H]3CCO3)c2c1 [Compound 38B, 2-(((1r,4S)-4-(6-((2,4-dichlorobenzofuran-7-yl)methoxy)pyridin-2-yl)cyclohexyl)methyl)-1-(((S)-oxetan-2-yl)methyl)-1H-benzo[d]imidazole-6-carboxylic acid]",F,[3],21.1%
same,AUC(0-t),"[3]; iv, 1 mg/kg",3940 ng·h/mL
same,Cmax,"[3]; iv, 1 mg/kg",5280 ng/mL
same,Tmax,"[3]; iv, 1 mg/kg",0.083 h
same,half-life,"[3]; iv, 1 mg/kg",1.45 h
same,AUC(0-t),"[3]; po, 5 mg/kg",4130 ng·h/mL
same,Cmax,"[3]; po, 5 mg/kg",1400 ng/mL
same,Tmax,"[3]; po, 5 mg/kg",1.17 h
same,half-life,"[3]; po, 5 mg/kg",2.62 h
"O=C(O)c1ccc2nc(CC3CCC(c4cccc(OCc5ccc(Cl)c6cc(F)oc56)n4)CC3)n(C[C@@H]3CCO3)c2c1 (stereo partly drawn) [Compound 7, (5)-2-((4-(6-((4-chloro-2-fluorobenzofuran-7-yl)methoxy)pyridin-2-yl)cyclohexyl)methyl)-1-(oxetan-2-ylmethyl)-1H-benzo[d]imidazole-6-carboxylic acid]",EC50,[1],0.22 nM
"O=C(O)c1cc2c(nc(CC3CC=C(c4cccc(OCc5ccc(Cl)c6cc(F)oc56)n4)CC3)n2C[C@@H]2CCO2)s1 (stereo partly drawn) [Compound 8, 2-((4-(6-((4-chloro-2-fluorobenzofuran-7-yl)methoxy)pyridin-2-yl)cyclohex-3-en-1-yl)methyl)-1-(((S)-oxetan-2-yl)methyl)-1H-thieno[2,3-d]imidazole-5-carboxylic acid]",half-life at 1 µM,[2],3 h
"O=C(O)c1ccc2nc(CC3CC=C(c4ncc(F)c(OCc5ccc(Cl)c6ccoc56)n4)CC3)n(C[C@@H]3CCO3)c2c1 (stereo partly drawn) [Compound 3, 2-((4-(4-((4-chlorobenzofuran-7-yl)methoxy)-5-fluoropyrimidin-2-yl)cyclohex-3-en-1-yl)methyl)-1-(((S)-oxetan-2-yl)methyl)-1H-benzo[d]imidazole-6-carboxylic acid]",EC50,[1],0.26 nM
same,half-life at 1 µM,[2],1.84 h
"N#CCC1(Cn2c(C[C@H]3CC[C@H](c4cccc(OCc5ccc(Cl)c6cc(F)oc56)n4)CC3)nc3ccc(C(=O)O)cc32)CC1 [Compound 43, 2-(((1r,4r)-4-(6-((4-chloro-2-fluorobenzofuran-7-yl)methoxy)pyridin-2-yl)cyclohexyl)methyl)-1-((1-(cyanomethyl)cyclopropyl)methyl)-1H-benzo[d]imidazole-6-carboxylic acid]",EC50,[1],0.2 nM
"CCn1cncc1Cn1c(CC2CC=C(c3cccc(OCc4ccc(Cl)c5cc(F)oc45)n3)CC2)nc2ccc(C(=O)O)cc21 (stereo not drawn) [Compound 29, 2-((4-(6-((4-chloro-2-fluorobenzofuran-7-yl)methoxy)pyridin-2-yl)cyclohex-3-en-1-yl)methyl)-1-((1-ethyl-1H-imidazol-5-yl)methyl)-1H-benzo[d]imidazole-6-carboxylic acid hydrochloride]",EC50,[1],0.22 nM
